Assay [1] addresses T1, VEGF receptor tyrosine kinase-2 (VEGF-R2) (Homo sapiens, UniProt P35968).
T1 construct: GST; made in house; host or cells: baculovirus-infected insect cells (Sf9)
The assay is described as follows: VEGF receptor-2 kinase assay (Assay 3). Format: biochemical. The settings on record: 8 μM ATP, poly-(Glu4Tyr), 10 min 22° C.; read-out: VEGF-R2 (Assay 3) Concentration for half-maximal inhibition of the enzyme activity, IC50. On the procedure:
Recombinant VEGF receptor tyrosine kinase-2 was purified as GST fusion protein from baculovirus-infected insect cells (Sf9). Poly-(Glu4Tyr), used as kinase substrate, was purchased from Sigma.
VEGF receptor tyrosine kinase (90 ng/measuring point) was incubated for 10 min at 22° C. in the presence of various concentrations of test substances (0 μM, and within the range 0.001-30 μM) in 30 μl assay buffer [40 mM Tris/HCl pH5.5, 10 mM MgCl2, 1 mM MnCl2, 3 μM Na ortho-vanadate, 1.0 mM dithiothreitol, 8 μM adenosine triphosphate (ATP), 0.96 μg/measuring point poly-(Glu4Tyr), 0.2 μCi/measuring point ^33P-gamma ATP, 1.4% dimethyl sulfoxide]. The reaction was stopped by adding EDTA solution (250 mM, pH 8.0, 15 μl/measuring point).
(§1) From each reaction mixture, 15 μl was applied to P30 filter strips (from Wallac), and unincorporated ^33P-ATP was removed by washing the filter strips three times, for 10 min each time, in 0.5% phosphoric acid. After drying the filter strips for 1 hour at 70° C., the filter strips were covered with scintillator strips (MeltiLex™ A, from Wallac) and stoved for 1 hour at 90° C. The amount of incorporated ^33P (substrate phosphorylation) was determined by scintillation measurement in a gamma-radiation measuring instrument (Wallac). The measured data were standardized to 0% inhibition (enzyme reaction without inhibitor) and 100% inhibition (all assay components except enzyme). The IC50 values were determined by means of a 4-parameter fit using the company's own software.

The subject of another assay is MCF7. Put plainly: Proliferation assay MCF7. Format: cell-based, human. The following applies: MCF7, estrogen receptor-positive mamma carcinoma, 4 days, crystal violet. On the procedure:
(§2) Cultivated human tumor cells (originally obtained from ATCC, HeLa-MaTu and HeLa-MaTu-ADR, originally obtained from Epo GmbH, Berlin, Germany) were plated at a density of 1000 to 5000 cells/measuring point, depending on the growth rate of the cell line, in a 96-well multititer plate in 200 μl of growth medium (DMEM/HAMS F12, 2 mM L-glutamine, 10% fetal calf serum). After 24 hours the cells of one plate (zero-point plate) were stained with crystal violet (see below), whereas the medium of the other plates was replaced with fresh culture medium (200 μl), to which the test substances had been added at various concentrations (0 μM, and in the range 0.01-30 μM; the final concentration of the solvent dimethyl sulfoxide was 0.5%). The cells were incubated for 4 days in the presence of the test substances. Cellular proliferation was determined by staining the cells with crystal violet: the cells were fixed by adding 20 μl/measuring point of an 11% glutaraldehyde solution for 15 min at room temperature. After washing the fixed cells with water three times, the plates were dried at room temperature. The cells were stained by adding 100 μl/measuring point of a 0.1% crystal violet solution (pH adjusted to pH3 by adding acetic acid). After washing the stained cells with water three times, the plates were dried at room temperature. The dye was dissolved by adding 100 μl/measuring point of a 10% acetic acid solution. The extinction was determined photometrically at a wavelength of 595 nm. The percentage change in cell growth was calculated by standardization of the measured values to the extinction values of the zero-point plate (=0%) and the extinction of the untreated (0 μM) cells (=100%). The measured data were standardized to 0% inhibition (cell proliferation without inhibitor) and 100% inhibition (zero-point plate). The IC50 values were determined by means of a 4-parameter fit using the company's own software.
(§3) The substances were examined in the following cell lines which, in an exemplary manner, represent the stated indications: […]

A further assay relates to Caco-2. Put plainly: Proliferation assay Caco-2. Format: cell-based, human. The settings on record: Caco-2, colon/rectum carcinoma, 4 days, crystal violet. On the procedure:
as §2, §3

For the next assay, the system named is DU145. The assay is described as follows: Proliferation assay DU145. Format: cell-based, human. The settings on record: DU145, prostate carcinoma, 4 days, crystal violet. On the procedure:
as §2, §3

A further assay has as its system NCI-H460. The assay is described as follows: Proliferation assay NCI-H460. The settings on record: NCI-H460, non-small-cell bronchial carcinoma, 4 days, crystal violet. In kind it is cell-based, human. As for the experimental part:
as §2, §3

The next assay concerns HeLa-MaTu. The assay is described as follows: Proliferation assay HeLa-MaTu. Format: cell-based, human. The settings on record: cervix carcinoma, 4 days, crystal violet. As for the experimental part:
as §2, §3

The next assay has as its system HeLa-MaTu-ADR. Put plainly: Proliferation assay HeLa-MaTu-ADR. In kind it is cell-based, human. The settings on record: cervix carcinoma, 4 days, crystal violet. As for the experimental part: as §2, §3
The next assay concerns the target T2, CDK1/CycB (Homo sapiens, UniProt P06493).
T2 construct: purchased ProQinase GmbH, Freiburg, Germany; host or cells: baculovirus-infected insect cells (Sf9)
The assay is described as follows: CDK1/CycB kinase assay (Assay 1). In kind it is biochemical. The following applies: 0.5 μM ATP, histon IIIS, 10 min 22° C.; read-out: CDK1/CycB (Assay 1) Concentration for half-maximal inhibition of the enzyme activity, IC50. As for the experimental part: Recombinant CDK1 and CycB-GST fusion proteins, purified from baculovirus-infected insect cells (Sf9), were purchased from ProQinase GmbH, Freiburg, Germany. The histon HIS used as kinase substrate is commercially available from Sigma.
CDK1/CycB (200 ng/measuring point) was incubated for 10 min at 22° C. in the presence of various concentrations of test substances (0 μM, and within the range 0.01-100 μM) in assay buffer [50 mM Tris/HCl pH8.0, 10 mM MgCl2, 0.1 mM Na ortho-vanadate, 1.0 mM dithiothreitol, 0.5 μM adenosine triphosphate (ATP), 10 μg/measuring point histon IIIS, 0.2 μCi/measuring point ^33P-gamma ATP, 0.05% NP40, 1.25% dimethyl sulfoxide]. The reaction was stopped by adding EDTA solution (250 mM, pH 8.0, 15 μl/measuring point).
as §1, with “μl were” for “μl was”

Another assay addresses T3, CDK2/CycE (Homo sapiens, UniProt P24941).
T3 construct: purchased ProQinase GmbH, Freiburg, Germany; host or cells: baculovirus-infected insect cells (Sf9)
The assay is described as follows: CDK2/CycE kinase assay (Assay 2). In kind it is biochemical. The following applies: 0.5 μM ATP, histon IIIS, 10 min 22° C.; read-out: CDK2/CycE (Assay 2) Concentration for half-maximal inhibition of the enzyme activity, IC50. As for the experimental part: Recombinant CDK2 and CycE-GST fusion proteins, purified from baculovirus-infected insect cells (Sf9), were purchased from ProQinase GmbH, Freiburg, Germany. Histon HIS, used as kinase substrate, was purchased from Sigma.
The reaction was stopped by adding EDTA solution (250 mM, pH 8.0, 15 μl/measuring point).
as §1, with “The measured data were standardized to 0% inhibition (enzyme reaction without inhibitor) and 100% inhibition (all assay components except enzyme).” left out

In the next assay the test system is HCT116. The assay is described as follows: Proliferation assay HCT116. Format: cell-based. The settings on record: Homo sapiens, HCT-116, 96 h; HCT116, colon/rectum carcinoma; 4 days, crystal violet. As for the experimental part: as §2, §3
A further assay concerns HeLa. The assay is described as follows: Proliferation assay HeLa. Format: cell-based. The settings on record: Homo sapiens, 96 h, cervix carcinoma, 4 days, crystal violet. On the procedure:
as §2, §3

T2 sequence (P06493 whole entry): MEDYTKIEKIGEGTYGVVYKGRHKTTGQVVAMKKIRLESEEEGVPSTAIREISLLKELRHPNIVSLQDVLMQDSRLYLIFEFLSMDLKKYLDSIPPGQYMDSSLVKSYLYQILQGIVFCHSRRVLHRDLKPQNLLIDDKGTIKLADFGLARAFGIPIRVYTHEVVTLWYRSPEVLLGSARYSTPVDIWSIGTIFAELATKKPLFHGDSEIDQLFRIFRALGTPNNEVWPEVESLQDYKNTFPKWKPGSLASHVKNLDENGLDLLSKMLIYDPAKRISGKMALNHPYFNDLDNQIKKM
T2 sequence (P14635 whole entry partner): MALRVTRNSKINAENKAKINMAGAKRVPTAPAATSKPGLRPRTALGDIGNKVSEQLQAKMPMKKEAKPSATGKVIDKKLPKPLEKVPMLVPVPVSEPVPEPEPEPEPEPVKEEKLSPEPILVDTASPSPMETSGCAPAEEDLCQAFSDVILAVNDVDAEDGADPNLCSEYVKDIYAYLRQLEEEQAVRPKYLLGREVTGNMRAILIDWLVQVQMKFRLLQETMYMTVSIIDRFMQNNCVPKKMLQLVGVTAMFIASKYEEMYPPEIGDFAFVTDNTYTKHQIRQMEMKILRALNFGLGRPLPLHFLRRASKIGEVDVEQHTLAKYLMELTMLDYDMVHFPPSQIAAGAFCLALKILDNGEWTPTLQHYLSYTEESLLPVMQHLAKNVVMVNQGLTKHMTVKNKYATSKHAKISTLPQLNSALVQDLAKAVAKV
T1 sequence (P35968 20-1356, species assumed): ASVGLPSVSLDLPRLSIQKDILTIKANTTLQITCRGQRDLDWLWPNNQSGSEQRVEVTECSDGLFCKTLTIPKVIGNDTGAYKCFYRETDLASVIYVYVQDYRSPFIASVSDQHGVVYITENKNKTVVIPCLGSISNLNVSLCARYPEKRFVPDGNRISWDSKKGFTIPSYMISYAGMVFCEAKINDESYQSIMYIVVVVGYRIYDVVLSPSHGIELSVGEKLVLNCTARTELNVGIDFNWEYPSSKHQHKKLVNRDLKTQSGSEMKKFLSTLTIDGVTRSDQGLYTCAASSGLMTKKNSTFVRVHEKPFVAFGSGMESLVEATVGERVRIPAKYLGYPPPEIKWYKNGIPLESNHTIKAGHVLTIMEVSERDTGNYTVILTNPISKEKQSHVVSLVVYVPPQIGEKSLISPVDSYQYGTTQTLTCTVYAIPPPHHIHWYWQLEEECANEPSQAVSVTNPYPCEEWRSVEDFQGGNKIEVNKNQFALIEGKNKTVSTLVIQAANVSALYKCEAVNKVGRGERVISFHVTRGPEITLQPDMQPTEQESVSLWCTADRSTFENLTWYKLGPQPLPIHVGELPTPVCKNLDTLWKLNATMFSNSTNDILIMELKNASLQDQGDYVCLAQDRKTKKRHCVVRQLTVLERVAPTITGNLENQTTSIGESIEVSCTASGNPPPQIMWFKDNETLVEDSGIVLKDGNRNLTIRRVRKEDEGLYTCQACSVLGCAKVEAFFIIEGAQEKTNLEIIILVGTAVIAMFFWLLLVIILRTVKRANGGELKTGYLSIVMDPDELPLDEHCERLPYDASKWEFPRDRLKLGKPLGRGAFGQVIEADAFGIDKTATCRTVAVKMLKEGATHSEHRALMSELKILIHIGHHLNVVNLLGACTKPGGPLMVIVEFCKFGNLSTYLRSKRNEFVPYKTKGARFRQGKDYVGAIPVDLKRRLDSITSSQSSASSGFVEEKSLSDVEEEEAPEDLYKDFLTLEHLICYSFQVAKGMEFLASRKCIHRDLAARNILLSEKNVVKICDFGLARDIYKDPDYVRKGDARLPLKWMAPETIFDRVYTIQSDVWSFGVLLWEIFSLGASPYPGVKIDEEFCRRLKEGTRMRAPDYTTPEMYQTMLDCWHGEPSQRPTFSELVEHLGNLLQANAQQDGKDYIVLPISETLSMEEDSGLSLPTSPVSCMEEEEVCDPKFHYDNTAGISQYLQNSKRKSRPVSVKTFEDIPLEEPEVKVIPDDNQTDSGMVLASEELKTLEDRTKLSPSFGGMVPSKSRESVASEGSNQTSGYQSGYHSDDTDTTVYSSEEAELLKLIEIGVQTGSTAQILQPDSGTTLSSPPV

Consider `C[C@@H](O)[C@@H](C)Oc1nc(Nc2ccc(S(=N)(=O)C3CC3)cc2)ncc1C(F)(F)F` (mixture of isomers) [Example 1-SI-1, (RS)—S-Cyclopropyl-S-(4-{[4-{[(1R,2R)-2-hydroxy-1-methylpropyl]oxy}-5-(trifluoromethyl)-pyrimidin-2-yl]amino}phenyl)sulfoximide], for which the IC50 in assay [1] worked out at 114 nM; with MCF7, 48 nM; with Caco-2, 80 nM; in the assay on DU145 it was 45 nM; in the assay with NCI-H460, 48 nM; in the assay with HeLa-MaTu (Homo sapiens, 96 h) it was 13 nM. In the assay with HeLa-MaTu-ADR, this molecule gave an IC50 of 35 nM.

In the case of `C[C@@H](Oc1nc(Nc2ccc(S(C)(=N)=O)cc2)ncc1C(F)(F)F)C(C)(C)O` (mixture of isomers) [Example 3, (RS)—S-(4-{[4-{[(R)-2-Hydroxy-1,2-dimethylpropyl]oxy}-5-(trifluoromethyl)pyrimidin-2-yl]-amino}phenyl)-S-methylsulfoximide], the IC50 on CDK1/CycB was 13 nM; at CDK2/CycE, 10 nM; in the assay on MCF7 (Homo sapiens, MCF7, 96 h) it was 70 nM; in the assay with Caco-2 (Homo sapiens, Caco-2, 96 h), 98 nM; in the assay with DU145 (Homo sapiens, DU-145, 96 h), 76 nM; in the assay with NCI-H460 (Homo sapiens, NCI-H460, 96 h), 113 nM. The IC50 in the assay with HeLa-MaTu (Homo sapiens, 96 h) was determined as 70 nM; in the assay on HeLa-MaTu-ADR (Homo sapiens, 96 h), 63 nM.

Take `C[C@@H](Nc1nc(Nc2ccc(S(=N)(=O)C3CC3)cc2)ncc1C(F)(F)F)C(C)(C)O` (mixture of isomers) [Example 5-SI-1, (RS)—S-Cyclopropyl-S-(4-{[4-{[(R)-2-hydroxy-1,2-dimethylpropyl]amino}-5-(trifluoromethyl)-pyrimidin-2-yl]amino}phenyl)sulfoximide]: the IC50 on CDK1/CycB came to 25 nM; on CDK2/CycE, 8 nM; in [1] it was 70 nM; in the assay on MCF7 (Homo sapiens, MCF7, 96 h), 33 nM; with Caco-2, 112 nM; in the assay on DU145, 107 nM. The IC50 in the assay with NCI-H460 worked out at 70 nM; in the assay with HeLa-MaTu, 22 nM; in the assay on HeLa-MaTu-ADR it was 63 nM.

Consider `C[C@@H](Nc1nc(Nc2ccc(S(=N)(=O)C3CC3)cc2)ncc1C(F)(F)F)C(C)(C)O` (mixture of isomers) [Example 5-SI-2, (RS)—S-Cyclopropyl-S-(4-{[4-{[(R)-2-hydroxy-1,2-dimethylpropyl]amino}-5-(trifluoromethyl)-pyrimidin-2-yl]amino}phenyl)sulfoximide], for which the IC50 at CDK1/CycB came to 9 nM; on CDK2/CycE it was 8 nM; in assay [1], 82 nM; in the assay on MCF7, 34 nM; with Caco-2, 42 nM; in the assay on HCT116, 28 nM. Also, the IC50 with DU145 worked out at 26 nM; in the assay on NCI-H460 it was 33 nM; in the assay with HeLa, 50 nM; with HeLa-MaTu, 10 nM; with HeLa-MaTu-ADR it was 24 nM.

For the molecule `CCS(=N)(=O)c1ccc(Nc2ncc(C(F)(F)F)c(N[C@H](C)[C@@H](C)O)n2)cc1` (mixture of isomers) [Example 6-SI-2, (RS)—S-Ethyl-S-(4-{[4-{[(1R,2R)-2-hydroxy-1-methylpropyl]amino}-5-(trifluoromethyl)-pyrimidin-2-yl]amino}phenyl)sulfoximide], the IC50 at CDK1/CycB came out at 5 nM; on CDK2/CycE, 5 nM; in assay [1], 71 nM; in the assay with MCF7, 26 nM; in the assay with Caco-2 it was 26 nM; with HCT116, 24 nM. Also, the IC50 with DU145 (Homo sapiens, DU-145, 96 h) is 197 nM; with NCI-H460, 24 nM; with HeLa it was 32 nM; in the assay with HeLa-MaTu (Homo sapiens, 96 h) it was 10 nM; in the assay on HeLa-MaTu-ADR (Homo sapiens, 96 h), 18 nM.

With `C[C@@H](O)[C@@H](C)Oc1nc(Nc2ccc(S(C)(=N)=O)cc2)ncc1C(F)(F)F` (single isomer, unassigned) [Example 2-SI-1], the IC50 was found to be 5 nM on CDK1/CycB; 6 nM on CDK2/CycE; 84 nM in assay [1]; 12 nM with HeLa-MaTu (Homo sapiens, 96 h).

As to `C[C@@H](O)[C@@H](C)Nc1nc(Nc2ccc(S(C)(=N)=O)cc2)ncc1C(F)(F)F` (single isomer, unassigned) [Example 8-SI-1], the IC50 on CDK1/CycB worked out at 11 nM; at CDK2/CycE, 6 nM; in [1], 116 nM; in the assay with MCF7 (Homo sapiens, MCF7, 96 h), 44 nM; in the assay with Caco-2 (Homo sapiens, Caco-2, 96 h) it was 32 nM; with NCI-H460 (Homo sapiens, NCI-H460, 96 h), 30 nM. The IC50 stood at 14 nM in the assay with HeLa-MaTu (Homo sapiens, 96 h) and 30 nM with HeLa-MaTu-ADR (Homo sapiens, 96 h).

Regarding `C[C@@H](Nc1nc(Nc2ccc(S(C)(=N)=O)cc2)ncc1C(F)(F)F)C(C)(C)O` (single isomer, unassigned) [Example 9-SI-1], the IC50 on CDK1/CycB was 4 nM; at CDK2/CycE it was 5 nM; in assay [1], 158 nM; in the assay on HeLa-MaTu (Homo sapiens, 96 h), 20 nM.

For the origin of these results see patent US20130210846A1, “USE OF NOVEL PAN-CDK INHIBITORS FOR TREATING TUMORS” (BAYER INTELLECTUAL PROPERTY GMBH, priority 2010, published 2013).
